Literature values as cited in US11590090B2, “Acetaminophen formulation with protection against toxic effects of overdose” (Anzen Pharmaceuticals, LLC, priority 2019, dated 2023).

System: cytochrome P450 mixed-function oxygenase system
Details: upon ingestion

Fraction metabolized in the liver by cytochrome P450 to NAPQI: about 5%
Compound: CC(=O)Nc1ccc(O)cc1 [acetaminophen]
